Assay results as given in patent publication US20080200448A1, “New Pyridine Analogues VIII 518” (ASTRAZENECA AB, priority 2007, published 2008).

Target: T1, P2Y12 receptor (Homo sapiens, UniProt Q9H244)
T1 construct: expressed in transfected cells; host or cells: CHO cells (membrane preparation)
Test: Functional inhibition of 2-Me-S-ADP induced P2Y12 signalling (35S-GTPγS binding, cell membranes)
Assay type: biochemical
Conditions: 35S-GTPγS assay, membranes, EC80 concentration of 2-methyl-thio-adenosine diphosphate, 30° C. for 45 min; read-out: GTPγS (IC50 μM)
Method in brief: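 Membranes (5 μg) from P2Y12-transfected CHO cells in pH 7.4 HEPES buffer with 10 μM GDP and saponin were stimulated with an EC80 of 2-methyl-thio-ADP plus compound and ^35S-GTPγS for 45 min at 30° C. Filter-retained ^35S-GTPγS was counted, normalised between agonist and no-agonist activity, and IC50 taken from a four-parameter fit.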

T1 sequence (Q9H244 whole entry): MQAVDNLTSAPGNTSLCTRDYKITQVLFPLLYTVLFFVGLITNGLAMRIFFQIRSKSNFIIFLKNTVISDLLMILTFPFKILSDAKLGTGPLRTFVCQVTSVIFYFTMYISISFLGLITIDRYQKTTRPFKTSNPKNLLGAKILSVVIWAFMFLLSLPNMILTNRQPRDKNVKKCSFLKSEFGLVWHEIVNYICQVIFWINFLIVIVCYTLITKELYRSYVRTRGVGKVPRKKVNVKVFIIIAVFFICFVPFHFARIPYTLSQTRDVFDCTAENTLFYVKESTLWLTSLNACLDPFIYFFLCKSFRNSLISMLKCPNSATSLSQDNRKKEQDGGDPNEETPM

CC(C)OC(=O)c1cc(C#N)c(N2CCC(C(=O)NS(=O)(=O)Cc3ccccc3)CC2)nc1CN1CCCCC1=O [Example 70, Isopropyl 6-{4-[(benzylsulfonyl)carbamoyl]piperidin-1-yl}-5-cyano-2-[(2-oxopiperidin-1-yl)methyl]nicotinate] gave an IC50 of 0.102 µM.
In the case of CCOC(=O)c1cc(C#N)c(N2CCC(C(=O)NS(=O)(=O)N(C)c3ccccc3)CC2)nc1CN1CCCCC1=O [Example 71, Ethyl 5-cyano-6-[4-({[methyl(phenyl)amino]sulfonyl}carbamoyl)piperidin-1-yl]-2-[(2-oxopiperidin-1-yl)methyl]nicotinate], the IC50 is reported as 0.036 µM.
CCOC(=O)c1cc(C#N)c(N2CCC(C(=O)NS(=O)(=O)CC3CCOCC3)CC2)nc1CN1CCCC1=O [Example 72, Ethyl 5-cyano-2-[(2-oxopyrrolidin-1-yl)methyl]-6-(4-{[(tetrahydro-2H-pyran-4-ylmethyl)sulfonyl]carbamoyl}piperidin-1-yl)nicotinate] showed an IC50 of 0.725 µM.
With CC(C)OC(=O)c1cc(C#N)c(N2CCC(C(=O)NS(=O)(=O)CC3CCOCC3)CC2)nc1CN1CCCC1=O [Example 73, Isopropyl 5-cyano-2-[(2-oxopyrrolidin-1-yl)methyl]-6-(4-{[(tetrahydro-2H-pyran-4-ylmethyl)sulfonyl]carbamoyl}piperidin-1-yl)nicotinate] the IC50 was over 3.3 µM.
CCOC(=O)c1cc(C#N)c(N2CCC(C(=O)NS(=O)(=O)CC3CCC3)CC2)nc1CN1CCCC1=O [Example 74, Ethyl 5-cyano-6-(4-{[(cyclobutylmethyl)sulfonyl]carbamoyl}piperidin-1-yl)-2-[(2-oxopyrrolidin-1-yl)methyl]nicotinate] gave an IC50 of 0.037 µM.
In the case of CCOC(=O)c1cc(C#N)c(N2CCC(C(=O)NS(=O)(=O)Cc3ccc(OC)cc3)CC2)nc1CN1CCCC1=O [Example 75, Ethyl 5-cyano-6-(4-{[(4-methoxybenzyl)sulfonyl]carbamoyl}piperidin-1-yl)-2-[(2-oxopyrrolidin-1-yl)methyl]nicotinate], the IC50 is reported as 0.0075 µM.
CCOC(=O)c1cc(C#N)c(N2CCC(C(=O)NS(=O)(=O)N(C)c3ccc(F)cc3)CC2)nc1CN1CCCC1=O [Example 76, Ethyl 5-cyano-6-[4-({[(4-fluorophenyl)(methyl)amino]sulfonyl}carbamoyl)piperidin-1-yl]-2-[(2-oxopyrrolidin-1-yl)methyl]nicotinate] gave an IC50 of 0.0073 µM.
With CCOC(=O)c1cc(C#N)c(N2CCC(C(=O)NS(=O)(=O)Nc3ccc(F)cc3)CC2)nc1CN1CCCC1=O [Example 77, Ethyl 5-cyano-6-[4-({[(4-fluorophenyl)amino]sulfonyl}carbamoyl)piperidin-1-yl]-2-[(2-oxopyrrolidin-1-yl)methyl]nicotinate] the IC50 was 0.017 µM.
CC(C)OC(=O)c1cc(C#N)c(N2CCC(C(=O)NS(=O)(=O)N(C)c3ccccc3)CC2)nc1CN1CCCC1=O [Example 78, Isopropyl 5-cyano-6-[4-({[methyl(phenyl)amino]sulfonyl}carbamoyl)piperidin-1-yl]-2-[(2-oxopyrrolidin-1-yl)methyl]nicotinate] gave an IC50 of 0.021 µM.
Work on CC(C)OC(=O)c1cc(C#N)c(N2CCC(C(=O)NS(=O)(=O)N(C)c3ccc(F)cc3)CC2)nc1CN1CCCC1=O [Example 79, Isopropyl 5-cyano-6-[4-({[(4-fluorophenyl)(methyl)amino]sulfonyl}carbamoyl)piperidin-1-yl]-2-[(2-oxopyrrolidin-1′-yl)methyl]nicotinate] yielded an IC50 of 0.014 µM.
CC(C)OC(=O)c1cc(C#N)c(N2CCC(C(=O)NS(=O)(=O)Nc3ccc(F)cc3)CC2)nc1CN1CCCC1=O [Example 80, Isopropyl 5-cyano-6-[4-({[(4-fluorophenyl)amino]sulfonyl}carbamoyl)piperidin-1-yl]-2-[(2-oxopyrrolidin-1-yl)methyl]nicotinate] gave an IC50 of 0.038 µM.
For CC(C)OC(=O)c1cc(C#N)c(N2CCC(C(=O)NS(=O)(=O)CC3CCC3)CC2)nc1CN1CCCC1=O [Example 81, Isopropyl 5-cyano-6-(4-{[(cyclobutylmethyl)sulfonyl]carbamoyl}piperidin-1-yl)-2-[(2-oxopyrrolidin-1-yl)methyl]nicotinate], the IC50 was 0.094 µM.
With CC(C)OC(=O)c1cc(C#N)c(N2CCC(C(=O)NS(=O)(=O)CC3CCCCC3)CC2)nc1CN1CCCC1=O [Example 82, Isopropyl 5-cyano-6-(4-{[(cyclohexylmethyl)sulfonyl]carbamoyl}piperidin-1-yl)-2-[(2-oxopyrrolidin-1-yl)methyl]nicotinate] the IC50 was 0.028 µM.
For COc1ccc(CS(=O)(=O)NC(=O)C2CCN(c3nc(CN4CCCC4=O)c(C(=O)OC(C)C)cc3C#N)CC2)cc1 [Example 83, Isopropyl 5-cyano-6-(4-{[(4-methoxybenzyl)sulfonyl]carbamoyl}piperidin-1-yl)-2-[(2-oxopyrrolidin-1-yl)methyl]nicotinate], the IC50 was 0.016 µM.
For CCOC(=O)c1cc(Br)c(N2CCC(C(=O)NS(=O)(=O)Cc3ccccc3)CC2)nc1CN1CCCC1=O [Example 84, Ethyl 6-{4-[(benzylsulfonyl)carbamoyl]piperidin-1-yl}-5-bromo-2-[(2-oxopyrrolidin-1-yl)methyl]nicotinate], the IC50 was 0.031 µM.
Work on CCOC(=O)c1cc(Cl)c(N2CCC(C(=O)NS(=O)(=O)Cc3ccccc3)CC2)nc1CN1CCCC1=O [Example 85, Ethyl 6-{4-[(benzylsulfonyl)carbamoyl]piperidin-1-yl}-5-chloro-2-[(2-oxopyrrolidin-1-yl)methyl]nicotinate] yielded an IC50 of 0.041 µM.
CCOC(=O)c1ccc(N2CCC(C(=O)NS(=O)(=O)Cc3ccccc3)CC2)nc1CN1CCCC1=O [Example 86, Ethyl 6-{4-[(benzylsulfonyl)carbamoyl]piperidin-1-yl}-2-[(2-oxopyrrolidin-1-yl)methyl]nicotinate] was tested, and the IC50 was 0.103 µM.
CCOC(=O)c1cc(Cl)c(N2CCC(C(=O)NS(=O)(=O)Cc3ccc(C)cc3)CC2)nc1CN1CCCC1=O [Example 87, Ethyl 5-chloro-6-(4-{[(4-methylbenzyl)sulfonyl]carbamoyl}piperidin-1-yl)-2-[(2-oxopyrrolidin-1-yl)methyl]nicotinate] gave an IC50 of 0.037 µM.
CCOC(=O)c1cc(Cl)c(N2CCC(C(=O)NS(=O)(=O)Cc3ccc(OC)cc3)CC2)nc1CN1CCCC1=O [Example 88, Ethyl 5-chloro-6-(4-{[(4-methoxybenzyl)sulfonyl]carbamoyl}piperidin-1-yl)-2-[(2-oxopyrrolidin-1-yl)methyl]nicotinate] was tested, and the IC50 was 0.081 µM.
In the case of CCOC(=O)c1cc(Cl)c(N2CCC(C(=O)NS(=O)(=O)Cc3ccc(F)cc3F)CC2)nc1CN1CCCC1=O [Example 89, Ethyl 5-chloro-6-(4-{[(2,4-difluorobenzyl)sulfonyl]carbamoyl}piperidin-1-yl)-2-[(2-oxopyrrolidin-1-yl)methyl]nicotinate], the IC50 is reported as 0.033 µM.
CCOC(=O)c1cc(C#N)c(N2CC(C(=O)NS(=O)(=O)Cc3ccccc3)C2)nc1CN1CCCC1=O [Example 90, Ethyl 6-{3-[(benzylsulfonyl)carbamoyl]azetidin-1-yl}-5-cyano-2-[(2-oxopyrrolidin-1-yl)methyl]nicotinate] gave an IC50 of 0.019 µM.
With CCOC(=O)c1cc(Cl)c(N2CCC(C(=O)NS(=O)(=O)Nc3ccc(F)cc3)CC2)nc1CN1CCCC1=O [Example 91, Ethyl 5-chloro-6-[4-({[(4-fluorophenyl)amino]sulfonyl}carbamoyl)piperidin-1-yl]-2-[(2-oxopyrrolidin-1-yl)methyl]nicotinate] the IC50 was 0.145 µM.
CCOC(=O)c1cc(Cl)c(N2CCC(C(=O)NS(=O)(=O)N(C)c3ccc(F)cc3)CC2)nc1CN1CCCC1=O [Example 92, Ethyl 5-chloro-6-[4-({[(4-fluorophenyl)(methyl)amino]sulfonyl}carbamoyl)piperidin-1-yl]-2-[(2-oxopyrrolidin-1-yl)methyl]nicotinate] showed an IC50 of 0.077 µM.
Work on CCOC(=O)c1cc(Cl)c(N2CCC(C(=O)NS(=O)(=O)N(C)c3ccccc3)CC2)nc1CN1CCCC1=O [Example 93, Ethyl 5-chloro-6-[4-({[methyl(phenyl)amino]sulfonyl}carbamoyl)piperidin-1-yl]-2-[(2-oxopyrrolidin-1-yl)methyl]nicotinate] yielded an IC50 of 0.062 µM.
CCOC(=O)c1cc(Cl)c(N2CCC(C(=O)NS(=O)(=O)CC3CCCCC3)CC2)nc1CN1CCCC1=O [Example 94, Ethyl 5-chloro-6-(4-{[(cyclohexylmethyl)sulfonyl]carbamoyl}piperidin-1-yl)-2-[(2-oxopyrrolidin-1-yl)methyl]nicotinate] was tested, and the IC50 was 0.194 µM.
For CCCOC(=O)c1cc(Cl)c(N2CCC(C(=O)NS(=O)(=O)N(C)c3ccc(F)cc3)CC2)nc1CN1CCCC1=O [Example 95, Propyl 5-chloro-6-[4-({[(4-fluorophenyl)(methyl)amino]sulfonyl}carbamoyl)piperidin-1-yl]-2-[(2-oxopyrrolidin-1-yl)methyl]nicotinate], the IC50 was 0.155 µM.
CC(C)OC(=O)c1cc(Cl)c(N2CCC(C(=O)NS(=O)(=O)Cc3ccccc3)CC2)nc1CN1CCCC1=O [Example 96, Isopropyl 6-{4-[(benzylsulfonyl)carbamoyl]piperidin-1-yl}-5-chloro-2-[(2-oxopyrrolidin-1-yl)methyl]nicotinate] was tested, and the IC50 was 0.178 µM.
Work on CCSC(=O)c1cc(C#N)c(N2CCC(C(=O)NS(=O)(=O)CC3CCCC3)CC2)nc1CN1CCCC1=O [Example 97, S-Ethyl 5-cyano-6-(4-{[(cyclopentylmethyl)sulfonyl]carbamoyl}piperidin-1-yl)-2-[(2-oxopyrrolidin-1-yl)methyl]pyridine-3-carbothioate] yielded an IC50 of 1.22 µM.
Molecule CCSC(=O)c1cc(C#N)c(N2CCC(C(=O)NS(=O)(=O)Cc3ccc(C)cc3)CC2)nc1CN1CCCC1=O [Example 98, S-Ethyl 5-cyano-6-(4-{[(4-methylbenzyl)sulfonyl]carbamoyl}piperidin-1-yl)-2-[(2-oxopyrrolidin-1-yl)methyl]pyridine-3-carbothioate] has an IC50 of 4.53 µM.
